We go through 29 compounds from patent US8778974B2, “Trisubstituted 1,2,4 triazoles” (Janssen Pharmaceutica NV, priority 2008, dated 2014).

Series [1] deals with T1, hα7-wt nAChR-expressing GH4Cl cells (Homo sapiens, UniProt P36544).
T1 construct: expressed in transfected cells
Put plainly: Patch-clamp current recording (whole-cell), potentiation of choline 1 mM response, PAM type. It counts as cell-based. Details: key to Pam type: Type 0 compounds minimally enhance the effect size of the current elicited by 1 mM choline.; Type 1 compounds enhance the effect size of the current elicited by 1 mM choline but minimally alter the kinetics of the receptor.; Type 2 compounds enhance the effect size of the current elicited by 1 mM choline while reducing the rate and/or the extent of desensitization.; Type 3 compounds enhance the effect size of the current elicited by 1 mM choline. When tested at higher concentrations up to 10 μM they completely inhibit desensitization, in particular a 1 mM choline application of 250 milliseconds.; Type 4 compounds allow for an initial desensitization of the receptor followed by a re-opening of the receptor during agonist application. The conditions noted are these: for EC50: according to Ex. D.2, "<5" = no top plateau reached at maximal concentration, read-out: Potency (pEC50) (converted); for Pam type: patch-clamp current recording, 1 mM choline. Put shortly:
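PAM type assigned qualitatively from current size and desensitization rate/extent when compound is applied simultaneously with 1 mM choline. Recordings: hα7-wt nAChR GH4Cl cells, whole-cell patch clamp, holding −70 mV, series resistance <15 MΩ with ≥60% compensation, pH 7.3 HEPES solutions, solution switching <100 ms.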
(Patch clamp records ionic current or voltage across a cell membrane.)

Usually melting point stands for the temperature of the solid-liquid transition.

T1 sequence (P36544 23-502): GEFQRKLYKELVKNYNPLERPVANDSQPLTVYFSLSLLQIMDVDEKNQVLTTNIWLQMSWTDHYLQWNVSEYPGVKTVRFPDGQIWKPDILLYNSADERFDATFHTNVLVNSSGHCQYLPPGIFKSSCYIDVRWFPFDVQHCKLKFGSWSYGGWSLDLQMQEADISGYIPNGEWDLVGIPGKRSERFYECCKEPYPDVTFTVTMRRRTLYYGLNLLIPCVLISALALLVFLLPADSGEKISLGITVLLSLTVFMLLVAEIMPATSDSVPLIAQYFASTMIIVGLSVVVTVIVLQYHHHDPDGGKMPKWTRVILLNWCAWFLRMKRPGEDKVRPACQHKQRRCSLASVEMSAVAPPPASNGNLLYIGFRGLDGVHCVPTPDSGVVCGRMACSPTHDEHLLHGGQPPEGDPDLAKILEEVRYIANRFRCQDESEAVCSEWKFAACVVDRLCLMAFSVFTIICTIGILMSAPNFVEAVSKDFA

Take `Cc1cc(-n2nc(Nc3ccc4c(c3)OC(F)(F)O4)nc2CC(=O)NC2CC2)c(C)cn1` [E160]: the melting point was 248.3 °C. Moreover, in series [1], the EC50 is 2140 nM and the Pam type was 2.

Consider `Cc1cc(-n2nc(Nc3ccc4c(c3)OC(F)(F)O4)nc2CC(=O)NCC2CC2)c(C)cn1` [E161], for which the melting point was 227.2 °C. Besides, in series [1], the EC50 is 1320 nM and the Pam type was determined as 2.

As to `Cc1cc(-n2nc(Nc3cccc(OC(F)(F)F)c3)nc2CC(=O)NCC2CC2)cc(C)n1` [E165], the melting point is 247.5 °C. In series [1], the EC50 was 209 nM and the Pam type came to 1.

For `CCNC(=O)Cc1nc(Nc2ccc(F)c(F)c2)nn1-c1cc(C)nc(C)c1` [E167, 3-[(3,4-difluorophenyl)amino]-1-(2,6-dimethyl-4-pyridinyl)-N-ethyl-1H-1,2,4-triazole-5-acetamide], the melting point came out at 296.8 °C. Moreover, in series [1], the EC50 was 617 nM and the Pam type is given as 2.

Compound `Cc1cc(-n2nc(Nc3ccc(F)c(F)c3)nc2CC(=O)NC2CC2)cc(C)n1` [E168] yielded a melting point of 279.3 °C. In series [1], the EC50 is 513 nM and the Pam type amounted to 2.

The compound `Cc1cc(-n2nc(Nc3cccc(C(F)(F)F)c3)nc2CC(=O)NC2CC2)cc(C)n1` [E171] had a melting point of 270 °C. Moreover, in series [1], the EC50 was 501 nM and the Pam type was determined as 4.

In turn, `CC[C@H](O)Cc1nc(Nc2cccc(Cl)c2F)nn1-c1ccnc(C)c1` [E173] gave a melting point of 127.9 °C. Besides, in series [1], the EC50 was 407 nM and the Pam type is 2.

Regarding `Cc1cc(-n2nc(Nc3cccc(C(F)(F)F)c3)nc2CC(=O)NC2CCC2)cc(C)n1` [E174], the melting point worked out at 276.3 °C. For the same compound, in series [1], the EC50 is 162 nM and the Pam type is reported as 2.

`CCNC(=O)Cc1nc(Nc2cccc(C(F)(F)F)c2)nn1-c1cc(C)nc(C)c1` [E175] registered a melting point of 283.6 °C. For the same compound, in series [1], the EC50 was 550 nM and the Pam type was 4.

With `Cc1cc(-n2nc(Nc3cccc(C(F)(F)F)c3)nc2CC(=O)NCC2CC2)cc(C)n1` [E177], the melting point came out at 260.9 °C. Further, in series [1], the EC50 was 219 nM and the Pam type is 2.

For the compound `Cc1cc(-n2nc(Nc3ccc4c(c3)OC(F)(F)O4)nc2CC(=O)NC2CCC2)cc(C)n1` [E179], the melting point is 291.3 °C. In series [1], the EC50 is 97.7 nM and the Pam type worked out at 1.

`Cc1cc(-n2nc(Nc3ccc4c(c3)OC(F)(F)O4)nc2CC(=O)NC2CC2)cc(C)n1` [E180, N-cyclopropyl-3-[(2,2-difluoro-1,3-benzodioxol-5-yl)amino]-1-(2,6-dimethyl-4-pyridinyl)-1H-1,2,4-triazole-5-acetamide] had a melting point of 292.6 °C. In series [1], the EC50 is 302 nM and the Pam type amounted to 2.

Compound `CCNC(=O)Cc1nc(Nc2cccc(OC(F)(F)F)c2)nn1-c1cc(C)nc(C)c1` [E181] showed a melting point of 277.5 °C. Further, in series [1], the EC50 is 513 nM and the Pam type is reported as 2.

Compound `Cc1cc(-n2nc(Nc3cccc(OC(F)(F)F)c3)nc2CC(=O)NC2CC2)cc(C)n1` [E182, N-cyclopropyl-1-(2,6-dimethyl-4-pyridinyl)-3-[[3-(trifluoromethoxy)phenyl]amino]-1H-1,2,4-triazole-5-acetamide] registered a melting point of 282.2 °C. In addition, in series [1], the EC50 was 331 nM and the Pam type turned out to be 2.

`Cc1cc(-n2nc(Nc3cccc(OC(F)(F)F)c3)nc2CC(=O)NC2CCC2)cc(C)n1` [E184] gave a melting point of 264.4 °C. In series [1], the EC50 is 257 nM and the Pam type amounted to 2.

The compound `Cc1cc(-n2nc(Nc3ccc(F)c(F)c3)nc2CC(=O)NCC2CC2)cc(C)n1` [E185] showed a melting point of 278.7 °C. For the same compound, in series [1], the EC50 is 468 nM and the Pam type came to 2.

`CC[C@H](O)Cc1nc(Nc2cc(F)c(F)c(F)c2)nn1-c1ccnc(C)c1` [E187, (alphaS)-alpha-ethyl-1-(2-methyl-4-pyridinyl)-3-[(3,4,5-trifluorophenyl)amino]-1H-1,2,4-triazole-5-ethanol] returned a melting point of 177.4 °C. Also, in series [1], the EC50 was 224 nM and the Pam type was 2.

With `CC[C@H](O)Cc1nc(Nc2cc(F)c(F)c(F)c2)nn1-c1cc(C)nc(C)c1` [E188, (alphaS)-1-(2,6-dimethyl-4-pyridinyl)-alpha-ethyl-3-[(3,4,5-trifluorophenyl)amino]-1H-1,2,4-triazole-5-ethanol], the melting point was found to be 176.6 °C. In series [1], the EC50 is 224 nM and the Pam type is reported as 2.

`Cc1cc(-n2nc(Nc3ccc(F)c(F)c3F)nc2C[C@H](C)O)cc(C)n1` [E189, (alphaS)-1-(2,6-dimethyl-4-pyridinyl)-alpha-methyl-3-[(2,3,4-trifluorophenyl)amino]-1H-1,2,4-triazole-5-ethanol]: the melting point was determined as 138 °C. Moreover, in series [1], the EC50 was 631 nM and the Pam type came out at 2.

`Cc1cc(-n2nc(Nc3cc(F)c(F)cc3F)nc2C[C@H](C)O)cc(C)n1` [E194] yielded a melting point of 177.7 °C. Also, the EC50 in series [1] is 5010 nM.

`CC[C@@H](O)Cc1nc(Nc2cc(OC)cc(C(F)(F)F)c2)nn1-c1ccc(C)nc1` [E195] showed a melting point of 151.9 °C. Also, the EC50 in series [1] was 3630 nM.

Compound `CC[C@H](O)Cc1nc(Nc2cccc(Cl)c2)nn1-c1ccc(C)nc1` [E196] gave a melting point of 110.4 °C. In addition, in series [1], the EC50 was 912 nM and the Pam type is reported as 2.

Compound `Cc1cc(-n2nc(Nc3ccc(F)c(F)c3)nc2C[C@@H](C)O)cc(C)n1` [E197] came in with a melting point of 225.1 °C. In series [1], the EC50 is 1780 nM and the Pam type is recorded as 2.

Consider `Cc1cc(-n2nc(Nc3ccc(F)c(C(F)(F)F)c3)nc2C[C@@H](C)O)cc(C)n1` [E199], for which the melting point is 224.4 °C. For the same compound, in series [1], the EC50 was 1070 nM and the Pam type is reported as 2.

Consider `CCNC(=O)Cc1nc(Nc2ccc3c(c2)OC(F)(F)O3)nn1-c1cc(C)nc(C)c1` [E200, 3-[(2,2-difluoro-1,3-benzodioxol-5-yl)amino]-1-(2,6-dimethyl-4-pyridinyl)-N-ethyl-1H-1,2,4-triazole-5-acetamide], for which the melting point is 280.9 °C. Also, in series [1], the EC50 is 407 nM and the Pam type was 2.

`Cc1cc(-n2nc(Nc3ccc4c(c3)OC(F)(F)O4)nc2CC(=O)NCC2CC2)cc(C)n1` [E201] registered a melting point of 270.3 °C. In addition, in series [1], the EC50 is 302 nM and the Pam type was 2.

`CC[C@H](O)Cc1nc(Nc2ccc(OC)cc2)nn1-c1ccnc(C)c1` [E202] gave a melting point of 133.2 °C. Also, in series [1], the EC50 was 2750 nM and the Pam type was 2.

The compound `Cc1cc(-n2nc(Nc3cc(F)c(F)c(F)c3)nc2C[C@H](C)O)ccn1` [E207] showed a melting point of 200.2 °C. In series [1], the EC50 is 1320 nM and the Pam type is 2.

On to `Cc1cc(-n2nc(Nc3cc(F)c(F)c(F)c3)nc2C[C@H](C)O)cc(C)n1` [E208], for which the melting point was found to be 199.6 °C. Further, in series [1], the EC50 is 741 nM and the Pam type amounted to 2.
